Laboratory results: publication PMC11157491, “Novel Alaninamide Derivatives with Drug-like Potential for Development as Antiseizure and Antinociceptive Therapies—In Vitro and In Vivo Characterization” (ACS Chemical Neuroscience, 2024)

Assays:
mice [1] = assay: 6 Hz (32 mA) psychomotor seizure model; assay type: in vivo; conditions: Mus musculus, ip; for responders at 100 mg/kg: 100 mg/kg i.p., 0.5 h; for ED50: mice, pretreatment 0.5 h
From the text: (§1) Identification and profiling of new ASM candidate compounds are still largely based on predictive animal models of seizures/epilepsy, while a range of in silico and in vitro approaches (i.e., molecular modeling or high throughput screening, etc.) are increasingly used in the early stages of ASM discovery.[31] The Epilepsy Therapy Screening Program (ETSP) of the National Institute of Neurological Disorders and Stroke (NIH, Bethesda, MD) has enabled the discovery of several approved ASMs by focusing on the in vivo testing of compounds synthesized by both academic laboratories and industry.[32] The ETSP provides a broad panel of seizure tests (ca. 30 rodent models), but a subset of them is used for the initial screening of new compounds with potential antiseizure activity. The routinely used seizure models include: (i) the MES test, which is an experimental model of tonic–clonic seizures, (ii) the 6 Hz model (32 mA) of focal seizures, and (iii) the scPTZ model of generalized absence or myoclonic seizures.[33],[34] Consequently, in the current studies, all final compounds 21–36 and 45–48 were initially studied in the MES and the 6 Hz (32 mA) seizure models after intraperitoneal (i.p.) administration at a screening dose of 100 mg/kg in mice at a time point of 0.5 h (the screening group consisted of four mice, and the results obtained are summarized in Table S1).
(§2) These parameters were then used to calculate the protective indexes (PIs, PI = TD50/ED50), which describe the therapeutics window of potential drug candidates. The ED50, TD50, and PI values for the tested compounds together with data of their chemical prototypes KA-11 and KJ-5 and reference ASMs are summarized in Table 2.
(§3) The adult male Albino Swiss mice weighed between 22 and 26 g were used in the in vivo studies. They were housed under standardized housing conditions in colony cages and had free access to food as well as tap water. The animals were left to adapt under laboratory conditions for 7 days. All procedures involving animals and their care were performed in accordance with the current European Community and Polish legislation on animal experimentation.
(§4) In the initial screening studies, four mice per group were randomly assigned to each experimental group (each mouse was used only once). To evaluate the ED50 or TD50 values, four groups consisting of eight animals were injected with various doses of tested compounds. The protective indexes (PIs) for the compounds investigated and reference ASMs were calculated by dividing the TD50 value, as determined in the chimney test, by the respective ED50 value, as determined in the MES, scPTZ, or 6 Hz (32 or 44 mA) tests (PI = TD50/ED50). The PIs are a measure of the potential therapeutic window of the tested agent.
(§5) All substances were suspended in Tween 80 (1% aqueous solution) and administered i.p. as a single injection at a dose of 10 mL/kg. On each day of experimentation, fresh solutions were prepared. The detailed in vivo procedures are described elsewhere: the maximal electroshock seizure test (MES),[60] the subcutaneous pentylenetetrazole seizure test (scPTZ),[61] the 6 Hz psychomotor seizure model (32 and 44 mA),[62] and the chimney test.[63] The reference ASMs were purchased from commercial suppliers: VPA (Sigma-Aldrich, St. Louis, MO), LCS, and LEV (UCB Pharma, Braine l’Alleud, Belgium).

mice [2] = assay: Maximal electroshock (MES) seizure test; assay type: in vivo; conditions: for responders at 100 mg/kg / ED50: Mus musculus, ip; for responders at 100 mg/kg / antiseizure protection in MES screening: 100 mg/kg i.p., 0.5 h; for responders at 100 mg/kg: read-out: MES: number of mice protected/number of mice tested (converted); for antiseizure protection in MES screening: four mice; for ED50: mice, pretreatment 0.5 h
From the text: as §1, §2, §3, §4, §5

TRPV1 (VR1) (h) = target: T1, TRPV1 (VR1) (h) (Homo sapiens, UniProt Q8NER1); assay: TRPV1 antagonist effect functional assay; assay type: cell-based; conditions: human recombinant CHO cells; for inhibition at 10 µM: read-out: % inhibition of control agonist response
T1 construct: Eurofins (contract assay)
T1 sequence (Q8NER1 whole entry): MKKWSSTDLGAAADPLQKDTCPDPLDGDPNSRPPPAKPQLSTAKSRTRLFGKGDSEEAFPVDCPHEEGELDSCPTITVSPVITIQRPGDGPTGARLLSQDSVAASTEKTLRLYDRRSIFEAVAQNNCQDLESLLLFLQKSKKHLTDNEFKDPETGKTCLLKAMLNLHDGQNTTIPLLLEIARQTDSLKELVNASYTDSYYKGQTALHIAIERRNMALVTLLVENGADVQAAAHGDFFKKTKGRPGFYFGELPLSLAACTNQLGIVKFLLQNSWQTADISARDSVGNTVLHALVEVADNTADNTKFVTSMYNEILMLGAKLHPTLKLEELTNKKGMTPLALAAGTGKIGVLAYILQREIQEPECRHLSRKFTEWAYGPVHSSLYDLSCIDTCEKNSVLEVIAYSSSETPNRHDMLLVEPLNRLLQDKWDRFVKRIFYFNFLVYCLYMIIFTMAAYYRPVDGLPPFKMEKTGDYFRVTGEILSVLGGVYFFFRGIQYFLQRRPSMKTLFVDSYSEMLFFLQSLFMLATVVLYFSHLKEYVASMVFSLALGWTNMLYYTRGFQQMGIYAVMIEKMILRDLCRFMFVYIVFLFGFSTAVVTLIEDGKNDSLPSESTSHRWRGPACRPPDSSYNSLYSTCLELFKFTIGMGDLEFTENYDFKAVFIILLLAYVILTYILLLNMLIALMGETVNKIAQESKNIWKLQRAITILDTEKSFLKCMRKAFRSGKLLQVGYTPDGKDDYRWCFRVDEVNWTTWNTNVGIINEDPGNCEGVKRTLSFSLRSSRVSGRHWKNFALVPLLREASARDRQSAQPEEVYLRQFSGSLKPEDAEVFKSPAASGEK
Experimental: For many years, the TRPV1 channel, permeable to calcium and sodium ions, has been recognized as a promising molecular target for novel analgesics.[19] […] Therefore, bearing in mind the involvement of TRPV1 in pain sensation and potentially in seizure induction, in the next step of the in vitro studies, the TRPV1 antagonist activity was determined for all compounds obtained (Table 6).
Binding/functional studies were carried out commercially in Eurofins Laboratories (Poitiers, France) and Eurofins Panlabs Discovery Services Taiwan, Ltd. (New Taipei City, Taiwan) using testing procedures that were reported previously (for details, see Table S2).
Table S2. Radioligand binding and functional assays. […]
TRPV1 (VR1) (h) (antagonist effect) […]
Assays were performed commercially in Eurofins Laboratories ( Poitiers, France) or Eurofins Panlabs Discovery Services
Taiwan, Ltd. (New Taipei City, Taiwan).

mice [3] = assay: Subcutaneous pentylenetetrazole (scPTZ) seizure test; assay type: in vivo; conditions: for protection in scPTZ screening / scPTZ: number of mice protected/number of mice tested: 100 mg/kg i.p.; for scPTZ: number of mice protected/number of mice tested: 0.5 h
From the text: as §2, §4, §5

[4] = four mice, read-out: protection in 6 Hz (32 mA) screening
[5] = read-out: 6 Hz (32 mA): number of mice protected/number of mice tested (converted)

| Structure (SMILES) | responders at 100 mg/kg (mice [1]; [4]) [%] | responders at 100 mg/kg (mice [1]; [5]) [%] | responders at 100 mg/kg (mice [2]) [%] | inhibition at 10 µM (TRPV1 (VR1) (h)) [%] | melting point [°C] | ED50 (mice [1]) [mg/kg] | protection in scPTZ screening (mice [3]) | scPTZ: number of mice protected/number of mice tested (mice [3]) | antiseizure protection in MES screening (mice [2]) [%] | ED50 (mice [2]) [mg/kg] | ED50 (mice [3]; Mus musculus, ip, mice) [mg/kg] | Kb (TRPV1 (VR1) (h)) [µM] |
| --- | --- | --- | --- | --- | --- | --- | --- | --- | --- | --- | --- | --- |
| CC(=O)NC(C)C(=O)N1CCN(c2ccccc2)CC1 (centres unmarked) [Compound 21, N-(1-oxo-1-(4-Phenylpiperazin-1-yl)propan-2-yl)acetamide] | 25 | 25 | 0 | 1.6 | 113.6 to 114.9 | – | – | – | – | – | – | – |
| CC(=O)NC(C)C(=O)N1CCN(c2cccc(Cl)c2)CC1 (centres unmarked) [Compound 22, N-(1-(4-(3-Chlorophenyl)piperazin-1-yl)-1-oxopropan-2-yl)acetamide] | 75 | 75 | 100 | 12.5 | 125.8 to 126.5 | 77.3 | 25% | 1/4 | 100 | 122 | – | – |
| CC(=O)NC(C)C(=O)N1CCN(c2ccc(Cl)cc2)CC1 (centres unmarked) [Compound 23, N-(1-(4-(4-Chlorophenyl)piperazin-1-yl)-1-oxopropan-2-yl)acetamide] | – | 0 | 0 | -4.6 | 144.9 to 145.8 | – | – | – | – | – | – | – |
| CC(=O)NC(C)C(=O)N1CCN(c2ccc(Cl)c(Cl)c2)CC1 (centres unmarked) [Compound 24, N-(1-(4-(3,4-Dichlorophenyl)piperazin-1-yl)-1-oxopropan-2-yl)acetamide] | 100 | 100 | 75 | 51.5 | 152.1 to 152.9 | 41.4 | 75% | 3/4 | 75 | > 150 | 116 | 4.5 |
| CC(=O)NC(C)C(=O)N1CCN(c2cc(Cl)cc(Cl)c2)CC1 (centres unmarked) [Compound 25, N-(1-(4-(3,5-Dichlorophenyl)piperazin-1-yl)-1-oxopropan-2-yl)acetamide] | 75 | 75 | 75 | 8.1 | 164.6 to 165.4 | 56.1 | 50% | 2/4 | 75 | 52.9 | – | – |
| CC(=O)NC(C)C(=O)N1CCN(c2ccc(C(F)(F)F)cc2)CC1 (centres unmarked) [Compound 27, N-(1-oxo-1-(4-(4-(Trifluoromethyl)phenyl)piperazin-1-yl)propan-2-yl)acetamide] | – | 0 | 25 | -15.9 | 132.8 to 133.3 | – | – | – | 25 | – | – | – |
| CC(=O)NC(C)C(=O)N1CCN(c2cccc(Oc3ccccc3)c2)CC1 (centres unmarked) [Compound 29, N-(1-oxo-1-(4-(3-Phenoxyphenyl)piperazin-1-yl)propan-2-yl)acetamide] | 75 | 75 | 100 | 104 | 133.6 to 134.3 | 41.2 | no activity | 0/4 | – | 39.9 | – | 4.2 |
| CC(NC(=O)c1ccccc1)C(=O)N1CCN(c2cccc(Cl)c2)CC1 (centres unmarked) [Compound 31, N-(1-(4-(3-Chlorophenyl)piperazin-1-yl)-1-oxopropan-2-yl)benzamide] | – | 0 | 0 | 4.6 | 177.8 to 178.5 | – | – | – | – | – | – | – |
| CC(NC(=O)c1ccccc1)C(=O)N1CCN(c2cccc(C(F)(F)F)c2)CC1 (centres unmarked) [Compound 32, N-(1-oxo-1-(4-(3-(Trifluoromethyl)phenyl)piperazin-1-yl)propan-2-yl)benzamide] | 25 | 25 | 0 | -16.1 | 165.8 to 166.5 | – | – | – | – | – | – | – |
| CCNC(=O)NC(C)C(=O)N1CCN(c2cccc(Cl)c2)CC1 (centres unmarked) [Compound 33, 1-(1-(4-(3-Chlorophenyl)piperazin-1-yl)-1-oxopropan-2-yl)-3-ethylurea] | – | 50 | 0 | -11.7 | 145.1 to 146.2 | – | – | – | – | – | – | – |
| CCNC(=O)NC(C)C(=O)N1CCN(c2cccc(C(F)(F)F)c2)CC1 (centres unmarked) [Compound 34, 1-Ethyl-3-(1-oxo-1-(4-(3-(trifluoromethyl)phenyl)piperazin-1-yl)propan-2-yl)urea] | – | 50 | 0 | -5.3 | 136.4 to 137.3 | – | – | – | – | – | – | – |
| CC(C)NC(=O)NC(C)C(=O)N1CCN(c2cccc(Cl)c2)CC1 (centres unmarked) [Compound 35, 1-(1-(4-(3-Chlorophenyl)piperazin-1-yl)-1-oxopropan-2-yl)-3-isopropylurea] | – | 50 | 0 | -11.9 | 147.4 to 148.2 | – | – | – | – | – | – | – |
| CC(C)NC(=O)NC(C)C(=O)N1CCN(c2cccc(C(F)(F)F)c2)CC1 (centres unmarked) [Compound 36, 1-Isopropyl-3-(1-oxo-1-(4-(3-(trifluoromethyl)phenyl)piperazin-1-yl)propan-2-yl)urea] | 25 | 25 | 25 | -13.6 | 144.5 to 145.4 | – | – | – | 25 | – | – | – |
| CC(=O)NC(C)C(=O)NC1CCN(c2ccccc2)C1 (centres unmarked) [Compound 45, 2-Acetamido-N-(1-phenylpyrrolidin-3-yl)propanamide] | – | 0 | 0 | -11.6 | 176.6 to 177.8 | – | – | – | – | – | – | – |
| CC(=O)NC(C)C(=O)NC1CCN(c2cccc(C(F)(F)F)c2)C1 (centres unmarked) [Compound 46, 2-Acetamido-N-(1-(3-(trifluoromethyl)phenyl)pyrrolidin-3-yl)propanamide] | – | 0 | 0 | -10 | 162.8 to 163.7 | – | – | – | – | – | – | – |
| CC(=O)NC(C)C(=O)NC1CCN(c2cccc(OC(F)(F)F)c2)C1 (centres unmarked) [Compound 47, 2-Acetamido-N-(1-(3-(trifluoromethoxy)phenyl)pyrrolidin-3-yl)propanamide] | 50 | 50 | 0 | -8.3 | 164.8 to 165.9 | – | – | – | – | – | – | – |
| CC(=O)NC(C)C(=O)NC1CCN(c2cccc(SC(F)(F)F)c2)C1 (centres unmarked) [Compound 48, 2-Acetamido-N-(1-(3-((trifluoromethyl)thio)phenyl)pyrrolidin-3-yl)propanamide] | 50 | 50 | 0 | 4.2 | 162.2 to 163.3 | – | – | – | – | – | – | – |
